According to paper PMC2785468, “Androgen Receptor Mutations Associated with Androgen Insensitivity Syndrome: A High Content Analysis Approach Leading to Personalized Medicine” (PLoS ONE, 2009):

Target: T1, AR-F764L (Homo sapiens, UniProt P10275, F765L)
T1 construct: expressed in transfected cells
T1 sequence (P10275 1-920 F765L): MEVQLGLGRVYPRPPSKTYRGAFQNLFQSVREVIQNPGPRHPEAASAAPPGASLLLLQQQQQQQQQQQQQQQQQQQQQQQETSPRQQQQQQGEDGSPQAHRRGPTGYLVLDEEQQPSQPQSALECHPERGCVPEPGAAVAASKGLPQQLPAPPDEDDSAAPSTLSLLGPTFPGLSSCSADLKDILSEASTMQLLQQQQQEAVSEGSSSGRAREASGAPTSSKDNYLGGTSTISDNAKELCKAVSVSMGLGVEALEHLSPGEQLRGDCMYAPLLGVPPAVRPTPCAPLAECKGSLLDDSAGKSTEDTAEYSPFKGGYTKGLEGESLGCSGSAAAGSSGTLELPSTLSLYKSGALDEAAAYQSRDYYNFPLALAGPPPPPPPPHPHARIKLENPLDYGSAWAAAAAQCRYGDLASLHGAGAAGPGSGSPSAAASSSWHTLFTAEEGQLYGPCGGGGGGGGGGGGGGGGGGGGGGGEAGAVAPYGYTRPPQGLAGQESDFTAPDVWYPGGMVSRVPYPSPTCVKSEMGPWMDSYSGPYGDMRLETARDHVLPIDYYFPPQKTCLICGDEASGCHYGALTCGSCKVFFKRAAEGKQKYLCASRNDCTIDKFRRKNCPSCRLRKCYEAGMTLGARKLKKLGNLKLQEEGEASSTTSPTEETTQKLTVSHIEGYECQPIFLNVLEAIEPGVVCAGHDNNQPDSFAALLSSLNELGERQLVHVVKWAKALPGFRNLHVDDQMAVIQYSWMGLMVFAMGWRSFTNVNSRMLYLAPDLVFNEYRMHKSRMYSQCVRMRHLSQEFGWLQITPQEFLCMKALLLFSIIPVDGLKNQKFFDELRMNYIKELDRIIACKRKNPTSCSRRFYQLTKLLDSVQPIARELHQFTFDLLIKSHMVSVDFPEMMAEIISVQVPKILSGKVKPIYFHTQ
Assay type: cell-based
Description: To determine the global effect of the various AIS mutations on AR signaling, each was analyzed using HCA. This technology allows simultaneous quantification of AR protein expression, nuclear translocation, subnuclear patterning, and transcriptional activity. The analysis was done in HeLa cell lines stably transfected with wild type or mutant ARs fused with green fluorescent protein, or using AR immunofluorescence in primary cultures of genital skin fibroblasts generated from foreskin biopsies of historical AIS patients, or of normal neonates undergoing circumcision at birth. To prevent the effects of receptor over-expression, stable HeLa cells were carefully selected to express AR levels similar to LNCaP as previously described. Prior to ligand treatment, HeLa cells were transfected with the pARR2PB-dsRED2skl reporter plasmid, consisting of the AR responsive promoter ARR2PB [31] driving expression of the red fluorescent protein reporter dsRED2skl engineered to target peroxisomes.
For studies utilizing HeLa GFP-AR cell lines, twenty-four hours before transfection with pARR2PB-dsRED2skl, cells were plated onto 100 mm plastic dishes in medium supplemented with 5% charcoal-stripped and dialyzed-FBS. Transient introduction of the pARR-2PB-dsRED2skl reporter construct was performed using 6.0 µg reporter plasmid and 6.0 µg carrier DNA (BlueScript, Stratagene, San Diego, CA) using Transfectin (Biorad) following standard protocols. After 8-hour incubation, DNA/lipid complexes were removed. Cells were then trypsinized and replated at 10,000 cells per well in Nunc poly-D-lysine treated 96-well optical glass bottom plates and incubated an additional 12 hours to allow for cell adhesion. […] Compound dilutions and final addition to multi-well plates were performed using a Beckman Biomek NX robotic platform to ensure repeatability from experiment to experiment. After incubation was complete, using the Biomek NX robot, plates were washed with PBS and fixed for 20 min at RT in 4% formaldehyde prepared in CSK buffer (80 mM potassium PIPES, pH 6.8, 5 mM EGTA, 2 mM MgCl2). After fixation, cells were briefly permeabilized (5 min) with 0.5% Triton-X and prepared for imaging by washing in PBS, aspirating the washed solution, and adding a 1 ng/ml DAPI solution to stain DNA and a generic protein stain (CellMask, Invitrogen) to facilitate cell and nuclear image segmentation. Cells were imaged in PBS.
Cells were imaged using the Cell Lab IC-100 Image Cytometer (IC-100; Beckman Coulter) platform that consists of 1) Nikon Eclipse TE2000-U Inverted Microscope (Nikon; Melville, NY); 2) Chroma 82000 triple band filter set (Chroma; Brattleboro, VT); 3) an imaging camera: Hamamatsu ORCA-ER Digital CCD camera (Hamamatsu; Bridgewater, NJ); and 4) a focusing camera: Photonics COHU Progressive scan camera (Photonics; Oxford, MA). […] In general, 49 to 64 images were captured per well for image analysis.
While our initial AR studies using HTM were based upon CytoShop (Beckman-Coulter), [15], [33], these approaches were refined in the current work with the more robust server-client Pipeline Pilot image analysis platform (Basic and Advanced Imagine Collections, Pipeline Pilot 7.5, Accelrys, San Diego). Initially, the background signal was removed from all images using plate- and channel-specific correction images, generated by the sum projection of >600 randomly selected images for each channel from the image set. This allows for a pixel-by-pixel background subtraction that compensates any consistent uneven background artifacts in the image set. Furthermore, users are able to customize the degree of background subtraction by applying a multiplier to each correction image, useful for identification of objects such as nuclei or cell borders. After background subtraction, nuclear masks were generated using a combination of non-linear least squares and watershed-from-markers image manipulations of the DAPI images (Fig. 1B).

C[C@@H]1CC2=CC(=O)CC[C@@H]2[C@H]2CC[C@@]3(C)[C@@H](CC[C@]3(C)O)[C@@H]21 [Mb, Mibolerone]
recovery of AR-F764 activity, % of control (AR-F764L, discussion, test not specified): 45%
hyperspeckling response (HeLa AR-F764L): 132 fold increase
induction of transcriptional activity (HeLa AR-F764L): 36 fold
increase in the percent of nuclear GFP signal (HeLa AR-F764L, vs untreated): 31%
Nuclear Translocation, Max (HeLa F764L, % signal present in the nucleus): 73.2±0.8%
Hyperspeckling, Max (HeLa F764L, absolute numerical measurement): 965±8
Transcriptional Activity, Max (HeLa F764L, pARR2PB-dsRED2skl reporter, absolute numerical measurement): 92.9±2.2
